Measured values as given in US10336735B2, “Small molecule inhibitors of fibrosis” (THE CALIFORNIA INSTITUTE FOR BIOMEDICAL RESEARCH, priority 2014, dated 2019).

System: primary human lung fibroblasts and primary rodent HSCs
Assay: High content imaging assay (α-SMA staining, cell morphology) of fibroblast to myofibroblast transdifferentiation, confirmed by Western blot and RT-PCR
Conditions: imaging and western based activity
Excerpt: High content imaging assays have been established, using primary human lung fibroblasts and primary rodent HSCs, that enable the identification of small molecules that either inhibit myofibroblast formation/activation or induce the reversion of activated myofibroblasts to a quiescent fibroblast state. Conditions, involving serum starvation and subsequent TGF-β treatment, have been identified that facilitate robust in vitro transdifferentiation in a miniaturized (384 well plate) format that is amenable to high throughput small molecule screening. The inhibition assay is based on α-SMA immunofluorescent staining and cell morphology changes associated with fibroblast to myofibroblast transdifferentiation, Using the selective ALK-5 TGF-β1 receptor inhibitor ([…]) as a positive control, the inhibition assay has been used to initiate a screen of a collection of ˜100,000 small molecules that consists of bioactive small molecules and a diversity set that has been assembled based on 2D and 3D structural diversity and inherent “drug-likeness” properties. Preliminary screening led to the identification of multiple previously identified anti-fibrotic molecules.
A high content imaging assay, based on α-SMA staining and cell morphological changes associated with fibroblast to myofibroblast transdifferentiation, was established using primary human lung fibroblasts and primary rodent HSCs. Conditions, involving serum starvation and subsequent TGF-β treatment, were identified that facilitate robust in vitro transdifferentiation in a miniaturized (384 well plate) format that is amenable to high throughput small molecule screening. A selective ALK-5 TGF-β1 receptor inhibitor (SB-431542) was used as a positive control. […] This assay was used to evaluate compounds of Formula (I), (Ia), (II), (IIa), (III), (IIIa), (IV), (IVa), (IVb), (V), (Va), (VI), (VIa), (VIb), (VIc), (VII), (VIIa), (VIII), (VIIIa), (IX), (IXa), (X), or (Xa) generated from medicinal chemistry efforts.
The activity of Itraconazole and compounds of Formula (I), (Ia), (II), (IIa), (III), (IIIa), (IV), (IVa), (IVb), (V), (Va), (VI), (VIa), (VIb), (VIc), (VII), (VIIa), (VIII), (VIIIa), (IX), (IXa), (X), or (Xa) was confirmed by analyzing changes in gene expression of multiple genes associated with fibroblast to myofibroblast transdifferentiation using biochemical methods (i.e., Western blot and RT-PCR). These 4-day assays were used to evaluate sets of 6 compounds at a time in 4-point dose response fashion.
The EC50 for (imaging and western based) activity is graded as: +++=<500 nM; ++=500 nM to 5 μM; +=5 to 30 μM); −=>30 μM; NT=Not Tested.

SMILES	EC50 (Homo sapiens, Fibroblast) [µM]	EC50 [µM]
CCC(C)n1ncn(-c2ccc(N3CCN(c4ccc(OC[C@H]5OC[C@](Cn6cncn6)(c6ccc(F)cc6F)O5)cc4)CC3)cc2)c1=O (mixture of isomers) [compound 200]	< 0.5	
CCC(C)n1cnn(-c2ccc(N3CCN(c4ccc(OC[C@@H]5CO[C@@](Cc6ccnnc6)(c6ccccc6)O5)cc4)CC3)cc2)c1=O (mixture of isomers) [Compound 102]	0.5 to 5	
CC(C)N1CCN(c2ccc(N3CCN(c4ccc(OC[C@H]5OC[C@](Cn6nccn6)(c6ccc(F)cc6F)O5)cc4)CC3)cc2)C1=O (racemic) [Compound 203, cis (±)-1-(4-(4-(4-((4-((2H-1,2,3-triazol-2-yl)methyl)-4-(2,4-difluorophenyl)-1,3-dioxolan-2-yl)methoxy)phenyl)piperazin-1-yl)phenyl)-3-isopropylimidazolidin-2-one]	> 30	
CC(=O)N1CCN(c2ccc(OC[C@@H]3CO[C@@](Cn4nccn4)(c4ccc(Cl)cc4Cl)O3)cc2)CC1 [Compound 4]	> 30	
CC(C)N1CCN(c2ccc(OC[C@@H]3CO[C@@](Cn4nccn4)(c4ccc(Cl)cc4Cl)O3)cc2)CC1 [Compound 5]	5 to 30	
CCC(C)n1ncn(-c2ccc(OC[C@@H]3CO[C@@](Cn4nccn4)(c4ccc(Cl)cc4Cl)O3)cc2)c1=O (stereo partly drawn) [Compound 6]	> 30	
CCC(C)n1ncn(-c2ccc(N3CCN(C[C@@H]4CO[C@@](Cn5nccn5)(c5ccc(Cl)cc5Cl)O4)CC3)cc2)c1=O (stereo partly drawn) [Compound 7]	> 30	
CCC(C)n1ncn(-c2ccc(-c3ccc(OC[C@@H]4CO[C@@](Cn5nccn5)(c5ccc(Cl)cc5Cl)O4)cc3)cc2)c1=O (stereo partly drawn) [Compound 8]	> 30	
CC(=O)C(C)n1cnn(-c2ccc(N3CCN(c4ccc(OC[C@@H]5CO[C@@](Cn6nccn6)(c6ccc(Cl)cc6Cl)O5)cc4)CC3)cc2)c1=O (stereo partly drawn) [Compound 10]	0.5 to 5	
CCCC(C)n1ncn(-c2ccc(N3CCN(c4ccc(OC[C@@H]5CO[C@@](Cn6nccn6)(c6ccc(Cl)cc6Cl)O5)cc4)CC3)cc2)c1=O (stereo partly drawn) [Compound 12]	0.5 to 5	
CCC(CC)n1ncn(-c2ccc(N3CCN(c4ccc(OC[C@@H]5CO[C@@](Cn6nccn6)(c6ccc(Cl)cc6Cl)O5)cc4)CC3)cc2)c1=O [Compound 13]	0.5 to 5	
O=c1n(-c2ccc(N3CCN(c4ccc(OC[C@@H]5CO[C@@](Cn6nccn6)(c6ccc(Cl)cc6Cl)O5)cc4)CC3)cc2)cnn1CC1CCCC1 [Compound 14]	< 0.5	
O=c1n(-c2ccc(N3CCN(c4ccc(OC[C@@H]5CO[C@@](Cn6nccn6)(c6ccccc6)O5)cc4)CC3)cc2)cnn1CC1CCNCC1 [Compound 15]	5 to 30	
CC(O)C(C)n1cnn(-c2ccc(N3CCN(c4ccc(OC[C@@H]5CO[C@@](Cn6nccn6)(c6ccccc6)O5)cc4)CC3)cc2)c1=O (stereo partly drawn) [Compound 16]	5 to 30	
CC(CCN)n1ncn(-c2ccc(N3CCN(c4ccc(OC[C@@H]5CO[C@@](Cn6nccn6)(c6ccccc6)O5)cc4)CC3)cc2)c1=O (stereo partly drawn) [Compound 17]	5 to 30	
CC(C)n1ncn(-c2ccc(N3CCN(c4ccc(OC[C@@H]5CO[C@@](Cn6nccn6)(c6ccccc6)O5)cc4)CC3)cc2)c1=O [Compound 18]	5 to 30	
CC(C)Cn1ncn(-c2ccc(N3CCN(c4ccc(OC[C@@H]5CO[C@@](Cn6nccn6)(c6ccccc6)O5)cc4)CC3)cc2)c1=O [Compound 19]	0.5 to 5	
O=c1n(-c2ccc(N3CCN(c4ccc(OC[C@@H]5CO[C@@](Cn6nccn6)(c6ccccc6)O5)cc4)CC3)cc2)cnn1CC1CCCC1 [Compound 20]	5 to 30	
CCC(CC)n1ncn(-c2ccc(N3CCN(c4ccc(OC[C@@H]5CO[C@@](Cn6nccn6)(c6ccccc6)O5)cc4)CC3)cc2)c1=O [Compound 21]		< 0.5
CCCC(C)n1ncn(-c2ccc(N3CCN(c4ccc(OC[C@@H]5CO[C@@](Cn6nccn6)(c6ccc(C#N)cc6C)O5)cc4)CC3)cc2)c1=O (stereo partly drawn) [Compound 23]	0.5 to 5	
CCC(C)n1ncn(-c2ccc(N3CCN(c4ccc(OC[C@@H]5CO[C@@](Cn6nccn6)(c6ccc(C#N)cc6C)O5)cc4)CC3)cc2)c1=O (stereo partly drawn) [Compound 24]	0.5 to 5	
Cc1cc(C#N)ccc1[C@]1(Cn2nccn2)OC[C@@H](COc2ccc(N3CCN(c4ccc(-n5cnn(CC6CCCC6)c5=O)cc4)CC3)cc2)O1 [Compound 25]	0.5 to 5	
CCC(C)n1ncn(-c2ccc(N3CCN(c4ccc(OC[C@@H]5CO[C@@](Cn6nccn6)(c6ccc(C#N)cc6Cl)O5)cc4)CC3)cc2)c1=O (stereo partly drawn) [Compound 26]	5 to 30	

SMILES	EC50 (Homo sapiens, Fibroblast) [µM]	EC50 [µM]
CCC(C)n1ncn(-c2ccc(N3CCN(c4ccc(OC[C@@H]5CO[C@@](Cn6nccn6)(c6cc(C#N)ccc6Cl)O5)cc4)CC3)cc2)c1=O (stereo partly drawn) [Compound 27]	5 to 30	
CCC(C)n1ncn(-c2ccc(N3CCN(c4ccc(OC[C@@H]5CO[C@@](Cn6nccn6)(c6cc(C#N)ccc6C)O5)cc4)CC3)cc2)c1=O (stereo partly drawn) [Compound 28]	5 to 30	
CCC(C)n1ncn(-c2ccc(N3CCN(c4ccc(OC[C@@H]5CO[C@@](Cn6nccn6)(c6cccc(Cl)c6Cl)O5)cc4)CC3)cc2)c1=O (stereo partly drawn) [Compound 29]	< 0.5	
CCC(C)n1ncn(-c2ccc(N3CCN(c4ccc(OC[C@@H]5CO[C@@](Cn6nccn6)(c6ccc(Br)cc6Br)O5)cc4)CC3)cc2)c1=O (stereo partly drawn) [Compound 30]	0.5 to 5	
CCC(C)n1ncn(-c2ccc(N3CCN(c4ccc(OC[C@@H]5CO[C@@](Cn6nccn6)(c6ccc(Cl)cc6Br)O5)cc4)CC3)cc2)c1=O (stereo partly drawn) [Compound 31]	< 0.5	
CCC(C)n1ncn(-c2ccc(N3CCN(c4ccc(OC[C@@H]5CO[C@@](Cn6nccn6)(c6cc(Cl)ccc6Cl)O5)cc4)CC3)cc2)c1=O (stereo partly drawn) [Compound 33]	0.5 to 5	
CCC(C)n1ncn(-c2ccc(N3CCN(c4ccc(OC[C@@H]5CO[C@@](Cn6nccn6)(c6cc(Cl)ccc6C)O5)cc4)CC3)cc2)c1=O (stereo partly drawn) [Compound 34]	0.5 to 5	
CCC(C)n1ncn(-c2ccc(N3CCN(c4ccc(OC[C@@H]5CO[C@@](Cn6nccn6)(c6cc(Cl)ccc6Br)O5)cc4)CC3)cc2)c1=O (stereo partly drawn) [Compound 35]	0.5 to 5	
CCC(C)n1ncn(-c2ccc(N3CCN(c4ccc(OC[C@@H]5CO[C@@](Cn6nccn6)(c6ccc(CN)cc6)O5)cc4)CC3)cc2)c1=O (stereo partly drawn) [Compound 37]	0.5 to 5	
CCC(C)n1ncn(-c2ccc(N3CCN(c4ccc(OC[C@@H]5CO[C@@](Cn6nccn6)(c6ncccn6)O5)cc4)CC3)cc2)c1=O (stereo partly drawn) [Compound 38]	> 30	
CCC(C)n1ncn(-c2ccc(N3CCN(c4ccc(OC[C@@H]5CO[C@@](CCl)(c6ccc(Cl)cc6Cl)O5)cc4)CC3)cc2)c1=O (stereo partly drawn) [Compound 39]	0.5 to 5	
CCC(C)n1ncn(-c2ccc(N3CCN(c4ccc(OC[C@@H]5CO[C@@](CC)(c6ccc(Cl)cc6Cl)O5)cc4)CC3)cc2)c1=O (stereo partly drawn) [Compound 40]	0.5 to 5	
CCC(C)n1ncn(-c2ccc(N3CCN(c4ccc(OC[C@@H]5CO[C@@](Cn6ccc(=O)cc6)(c6ccc(Cl)cc6Cl)O5)cc4)CC3)cc2)c1=O (stereo partly drawn) [Compound 41]	< 0.5	
CCC(C)n1ncn(-c2ccc(N3CCN(c4ccc(OC[C@@H]5CO[C@@](Cn6ncc(Cl)c(Cl)c6=O)(c6ccc(Cl)cc6Cl)O5)cc4)CC3)cc2)c1=O (stereo partly drawn) [Compound 42]	5 to 30	
CCC(C)n1ncn(-c2ccc(N3CCN(c4ccc(OC[C@@H]5CO[C@@](CN6CCOCC6)(c6ccc(Cl)cc6Cl)O5)cc4)CC3)cc2)c1=O (stereo partly drawn) [Compound 44]	> 30	
CCC(C)n1ncn(-c2ccc(N3CCN(c4ccc(OC[C@@H]5CO[C@](CN6CCOCC6)(c6ccc(Cl)cc6Cl)O5)cc4)CC3)cc2)c1=O (stereo partly drawn) [Compound 45]	> 30	
CCC(C)n1ncn(-c2ccc(N3CCN(c4ccc(OC[C@@H]5CO[C@@](Cn6cccn6)(c6ccccc6)O5)cc4)CC3)cc2)c1=O (stereo partly drawn) [Compound 48]	< 0.5	
CCC(C)n1ncn(-c2ccc(N3CCN(c4ccc(OC[C@@H]5CO[C@@](Cn6ncc7ccccc76)(c6ccc(Cl)cc6Cl)O5)cc4)CC3)cc2)c1=O (stereo partly drawn) [Compound 49]	0.5 to 5	
CCC(C)n1ncn(-c2ccc(N3CCN(c4ccc(OC[C@@H]5CO[C@@](Cn6nc7ccccc7n6)(c6ccc(C#N)cc6C)O5)cc4)CC3)cc2)c1=O (stereo partly drawn) [Compound 50]	0.5 to 5	
CCC(C)n1ncn(-c2ccc(N3CCN(c4ccc(OC[C@@H]5CO[C@@](Cn6cccn6)(c6ccc(C#N)cc6C)O5)cc4)CC3)cc2)c1=O (stereo partly drawn) [Compound 51]	< 0.5	
CCC(C)n1ncn(-c2ccc(N3CCN(c4ccc(OC[C@@H]5CO[C@@](CCn6nccn6)(c6ccc(Cl)cc6Cl)O5)cc4)CC3)cc2)c1=O (stereo partly drawn) [Compound 52]	< 0.5	
CCC(C)n1ncn(-c2ccc(N3CCN(c4ccc(OC[C@@H]5CO[C@@](Cn6nccn6)(c6ccc(Cl)cc6Cl)O5)cn4)CC3)cc2)c1=O (stereo partly drawn) [Compound 53]	0.5 to 5	
